Read-outs that look alike come from different tables or passages of the source.
How the values were obtained:
[1] = Radiolysis / stability of [18F]FET-βAG-TOCA: percentage of parent compound over time; type: physicochemical; conditions: for Percentage of parent compound at time: T = 0 / Percentage of parent compound at time: T = 120 m / Percentage of parent compound at time: T = 240 m: ~10 ml in 3-6% EtOH/PBS
Experimental: The use of higher levels of fluorine-18 (0.5-1 Curie) was also investigated. […] Although radiolysis occurred during isolation, once the product had been fully formulated (6% EtOH/PBS (10 mL)) it appeared to be stable up to 6 h. During this experiment, the EOS yield after aseptic filtration was 13%. The starting fluorine-18 was then reduced to see enough material could be isolated for a clinical dose, whilst at the same time reducing radiolysis.
Additional experiments attempted to add ascorbic acid to the existing HPLC eluent (0.5% w/v), add a sodium ascorbate solution to the HPLC fraction collection vial (5 mg/mL (5 mL)) and elute the tC18 cartridge with a sodium ascorbate/EtOH solution (5 mg/mL/1% EtOH). Unfortunately, due to addition of ascorbic acid to the HPLC eluent, the purification became inefficient, showing very little elution of the stable reagents. […] The isolated yield was also unaffected and gave EOS of 14%. To avoid this problem, ethanol was investigated as a replacement for the ascorbic acid. After some optimisation, a suitable solvent system was found (25% MeCN (0.1% HCl), 75% H2O (0.1% HCl)+0.8% w/v EtOH) which could be used to purify the material at the same time as reducing radiolysis (97% parent T=0 min (n=1)) (Entry 5, Table 2).

[2] = Entry 1, starting activity 1 Curie
[3] = Entry 2, starting activity 600 mCi
[4] = Entry 3, starting activity 500 mCi
[5] = Entry 4, starting activity 500 mCi
[6] = Entry 5, starting activity 500 mCi, EtOH-containing HPLC eluent

With [^18F]FET-βAG-TOCA the “time for which stable once fully formulated” value ([1]; 1 Curie run, formulated in 6% EtOH/PBS (10 mL)) was at least 6 h, the “Percentage of parent compound at time: T = 0” value (shortened to “Percentage … T = 0”) [1, 2] was 60% and the “Percentage of parent compound at time: T = 120 m” value (from here on “Percentage … T = 120 m”) [1, 2] was 60%. The “Percentage of parent compound at time: T = 240 m” value (“Percentage … T = 240 m” below) [1, 2] was 60%, the “Percentage … T = 0” value [1, 3] was 91% and the “Percentage … T = 120 m” value [1, 3] was 91%. The “Percentage … T = 240 m” value [1, 3] was 91%, the “Percentage … T = 0” value [1, 4] was 96% and the “Percentage … T = 120 m” value [1, 4] was 96%. The “Percentage … T = 240 m” value [1, 4] was 96%, the “Percentage … T = 0” value [1, 5] was 97% and the “Percentage … T = 120 m” value [1, 5] was 97%. For the same substance, the “Percentage … T = 240 m” value [1, 5] was 97%, the “Percentage … T = 0” value [1, 6] was 97% and the “Percentage … T = 240 m” value [1, 6] was 97%. For the same substance, the “parent at T=0 min” value ([1]; HPLC solvent 25% MeCN (0.1% HCl), 75% H2O (0.1% HCl)+0.8% w/v EtOH, n=1, Entry 5, Table 2) was 97%, the “parent at T=0 min” value ([1]; ascorbic acid in HPLC eluent (0.5% w/v), sodium ascorbate in collection vial and tC18 eluent) was 97% and the intact parent ([1]; starting with 0.5 Curies of fluorine-18) was 91%. The “parent at T=0” value ([1]; starting with 1 Curie of fluorine-18, radiolysis during HPLC purification and tC18 formulation) was 62%.

In the case of βAG-TOCA, the “time for which stable” value (in the presence of BPDS) is reported as at most 20 min, the “time for which stable” value (in the presence of CuSO4) is reported as over 240 min and the “time for which stable” value (in the presence of Na-ascorbate) is reported as at most 20 min.

— US20140097078A1, “DISTILLATION DEVICE AND METHOD” (GE HEALTHCARE LIMITED, priority 2011, published 2014)
